Data from article PMC10487658, “Identification and Characterization of RK22, a Novel Antimicrobial Peptide from Hirudinaria manillensis against Methicillin Resistant Staphylococcus aureus” (International Journal of Molecular Sciences, 2023).
No end group written: not given here.

Key:
[1] = system: MRSA-Z; assay type: in vitro ADME, Staphylococcus aureus
Experimental: (§1) We determined the stability of RK22 in plasma according to the previously reported method. Briefly, an equal volume of RK22 was mixed with human plasma and diluted to a concentration of 5 mg/mL. The MICs of RK22 against S. aureus ATCC6538 and methicillin-resistant S. aureus MRSA-Z were determined after incubation at 37 °C for different times (0, 2, 4, 6, 8, and 10 h).

[2] = system: S. aureus (ATCC6538); assay type: in vitro ADME, Staphylococcus aureus
Experimental: as §1

[3] = system: SA220823 (clinically isolated S. aureus); assay: microbe, parasite or virus in culture; assay type: cell-based, Staphylococcus aureus; conditions: SA220823 (clinically isolated)
Experimental: (§2) The bacterial strains used in this study included Pseudomonas aeruginosa (P. aeruginosa, ATCC27853), Acinetobacter baumannii (A. baumannii, ATCC19606), Escherichia coli (E. coli, ATCC8739), and S. aureus (ATCC6538, two clinically isolated strains (SA220823 and SA15772)), and three clinically isolated methicillin-resistant strains (MRSA-Z, MRSA11, and MRSA22). All strains were grown in Luria-Bertani (LB) broth.
(§3) The minimum inhibitory concentration (MIC) for all strains was determined using the […] assay based on a previous study with minor modifications. Initially, strains in the exponential phase were diluted to a concentration of 2 × 10^5 CFU/mL using RPMI 1640 medium (Corning, New York, NY, USA). Next, 100 μL of the bacterial suspension was mixed with 100 μL of the sample solution (final concentration 0–200 μg/mL in RPMI 1640 medium) in 96-well plates. The plates were then incubated at 37 °C for 12–16 h. After incubation, the absorbance at 600 nm was measured, and the MIC was determined as the lowest concentration of the test sample in which no bacterial growth was detected in the well.

[4] = system: MRSA22 (clinically isolated methicillin-resistant S. aureus); assay: microbe, parasite or virus in culture; assay type: cell-based, Staphylococcus aureus; conditions: MRSA22 (clinically isolated methicillin-resistant)
Experimental: as §2, §3

[5] = system: SA15772 (clinically isolated S. aureus); assay: microbe, parasite or virus in culture; assay type: cell-based, Staphylococcus aureus; conditions: SA15772 (clinically isolated)
Experimental: as §2, §3

[6] = system: MRSA-Z (clinically isolated methicillin-resistant S. aureus); assay: microbe, parasite or virus in culture; assay type: cell-based, Staphylococcus aureus; conditions: -Z (clinically isolated methicillin-resistant)
Experimental: as §2, §3

[7] = system: S. aureus (ATCC6538); assay: microbe, parasite or virus in culture; assay type: cell-based, Staphylococcus aureus
Experimental: as §2, §3

[8] = system: MRSA11 (clinically isolated methicillin-resistant S. aureus); assay: microbe, parasite or virus in culture; assay type: cell-based, Staphylococcus aureus; conditions: MRSA11 (clinically isolated methicillin-resistant)
Experimental: as §2, §3

[9] = system: A. baumannii, ATCC19606; assay type: cell-based, Acinetobacter baumannii; conditions: RPMI 1640, 2 × 10^5 CFU/mL, 37 °C, 12–16 h, absorbance at 600 nm
Experimental: as §2, §3

[10] = system: mouse red blood cells; assay: Hemolysis assay; assay type: cell-based; conditions: up to 400 μg/mL, 37 °C, 1 h, absorbance 540 nm, 1% Triton X-100 = 100%, 3 independent experiments
Experimental: The hemolysis and cytotoxicity assays were performed according to previous research with some modifications. In the hemolysis assay, mouse blood was collected in anticoagulant tubes, centrifuged (1000× g, 5 min), and washed with normal saline three times to obtain red blood cells. The red blood cells were then resuspended to prepare a 10% red blood cell suspension. The suspension was mixed with an equal volume solution of RK22 (final concentration 0–400 μg/mL), then incubated at 37 °C for 1 h and centrifuged (1000× g, 10 min). After this, 150 μL of the supernatant was transferred to a new 96-well plate, with absorbance then measured at 540 nm. Additionally, 1% Triton X-100 and sterile saline treatment groups accounted for 100% and 0% hemolysis, respectively.
Supplementary Figures and Figure legends
Figure S1. […] After incubation for 60 min at 37°C, cells were centrifuged (3,500 rpm, 5 min) and the absorbance of the supernatant was measured at 540 nm. The value for “zero hemolysis” was determined using sterile saline (negative control, NC), while 100% hemolysis was established using 1% (v/v) Triton X-100 (PC: positive control). Hemolysis of testing sample was calculated as the percentage of Triton X-100-induced hemolysis. […] Cell viability was determined by adding 10 μl CCK8 in to the cells and incubated for 1-4 h. The absorbance at 450 nm of the solution was measured with a microplate reader. […]

[11] = system: E. coli, ATCC25922; assay type: cell-based, Escherichia coli; conditions: E. coli ATCC25922; RPMI 1640, 37 °C, 12–16 h, absorbance at 600 nm
[12] = system: washed platelets; assay: Platelet activity assay, flow cytometry; assay type: cell-based; conditions: mouse washed platelets, 20, 10, 5, 2.5 μg/mL, 10 min, P-selectin
Experimental: Platelets were isolated from the mice as described in a previous study with minor modifications. The effect of RK22 and LL-37 on platelet activity was detected by flow cytometry. Mouse blood was mixed with Tyrode’s buffer A (137 mM NaCl, 2 mM KCl, 0.3 mM NaH2PO4, 12 mM NaHCO3, 5.5 mM glucose, 0.35% BSA, 1 mM MgCl2, and 0.2 mM EDTA, pH 6.5) and centrifuged (150× g, 10 min, room temperature) to obtain platelet-rich plasma (PRP), which was then pelleted (400× g, 5 min, room temperature), washed with Tyrode’s buffer A, and finally resuspended in Tyrode’s buffer B (137 mM NaCl, 2 mM KCl, 0.3 mM NaH2PO4, 12 mM NaHCO3, 5.5 mM glucose, 0.35% BSA and 2 mM CaCl2, pH 7.4). Antibodies against P-selectin (Biolegend, San Diego, CA, USA) were added to the platelets, followed by incubation for 10 min at room temperature. Samples (20, 10, 5, and 2.5 μg/mL) or normal saline were added, respectively, and analyzed by flow cytometry (BD, LSRFortessa^TM, Franklin Lakes, NJ, USA).

Question: For RKYKEKKDKSQNKKKKRKCMIL [RK22], which “MIC after incubation in plasma” value [1] is on record?
Answer: The value was 6.25 µg/mL.

Question: What about the “MIC after incubation in plasma” value [2] of the same sequence?
Answer: Its value is 6.25 µg/mL.

Question: What about the MIC [3] of the same sequence?
Answer: Its MIC is 12.5 µg/mL.

Question: What about the MIC [4] of the same sequence?
Answer: The MIC was 6.25 µg/mL.

Question: And the MIC [5]?
Answer: Its MIC is 12.5 µg/mL.

Question: And the MIC [6]?
Answer: The MIC was 6.25 µg/mL.

Question: What about the MIC [7] of the same sequence?
Answer: Its MIC is 6.25 µg/mL.

Question: What about the MIC [8] of the same sequence?
Answer: The MIC was 6.25 µg/mL.

Question: What about the MIC [9] of the same sequence?
Answer: Its MIC is 100 µg/mL.

Question: What about the hemolytic activity [10] of the same sequence?
Answer: Its hemolytic activity is “did not exhibit any obvious hemolytic activity”.

Question: What about the MIC [11] of the same sequence?
Answer: The MIC was 25 µg/mL.

Question: And the platelet activation [12]?
Answer: The platelet activation was “did not exert any such effects”.
